Data on one molecule can be found in ChEMBL document CHEMBL1122966, “Compactin (ML-236B) and related compounds as potential cholesterol-lowering agents that inhibit HMG-CoA reductase” (J Med Chem, 1985).

The target of assay [1] is T1, 3-hydroxy-3-methylglutaryl-coenzyme A reductase (Rattus norvegicus, UniProt P51639).
T1 sequence (P51639 whole entry): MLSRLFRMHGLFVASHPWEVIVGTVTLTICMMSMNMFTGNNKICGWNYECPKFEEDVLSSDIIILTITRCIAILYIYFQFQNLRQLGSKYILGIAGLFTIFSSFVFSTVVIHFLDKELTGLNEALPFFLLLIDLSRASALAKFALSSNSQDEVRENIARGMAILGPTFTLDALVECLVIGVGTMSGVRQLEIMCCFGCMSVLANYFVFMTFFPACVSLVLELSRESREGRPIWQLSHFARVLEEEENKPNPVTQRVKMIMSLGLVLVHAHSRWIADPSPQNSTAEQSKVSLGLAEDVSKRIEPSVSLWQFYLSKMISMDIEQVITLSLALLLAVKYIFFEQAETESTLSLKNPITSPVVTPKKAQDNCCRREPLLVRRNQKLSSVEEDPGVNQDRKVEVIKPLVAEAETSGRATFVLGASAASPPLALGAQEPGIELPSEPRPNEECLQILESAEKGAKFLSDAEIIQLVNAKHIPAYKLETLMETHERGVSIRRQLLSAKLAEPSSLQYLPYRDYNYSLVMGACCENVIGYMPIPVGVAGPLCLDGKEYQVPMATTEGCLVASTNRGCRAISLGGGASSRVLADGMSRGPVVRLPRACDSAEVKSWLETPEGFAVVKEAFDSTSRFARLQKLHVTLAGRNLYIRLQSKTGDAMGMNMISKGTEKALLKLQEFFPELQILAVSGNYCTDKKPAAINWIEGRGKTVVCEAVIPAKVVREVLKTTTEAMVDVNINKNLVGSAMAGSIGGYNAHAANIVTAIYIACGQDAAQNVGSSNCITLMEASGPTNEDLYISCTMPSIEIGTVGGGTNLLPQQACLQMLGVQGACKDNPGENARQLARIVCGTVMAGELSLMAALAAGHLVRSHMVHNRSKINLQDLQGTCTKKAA
The assay can be described thus: Binding affinity was determined against purified rat liver HMG-coA reductase enzyme.

The species entered for assay [2] is Homo sapiens. The assay can be described thus: Ability to inhibit cholesterol biosynthesis from [14C]acetate in cultured human skin fibroblasts at the concentration of 1 uM. Type of assay: functional.
For assay [3], the species on record is Homo sapiens. The experiment in a line: Ability to inhibit cholesterol biosynthesis from [14C]acetate in cultured human skin fibroblasts at the concentration of 100 nM. Type of assay: functional.
The species named for assay [4] is Homo sapiens. The experiment in a line: Ability to inhibit cholesterol biosynthesis from [14C]acetate in cultured human skin fibroblasts at the concentration of 10 uM. It counts as functional.
The species named for assay [5] is Homo sapiens. The experiment in a line: Ability to inhibit cholesterol biosynthesis from [14C]acetate in cultured human skin fibroblasts at the concentration of 10 nM. It counts as functional.
The species named for assay [6] is Homo sapiens. The assay can be described thus: Ability to inhibit cholesterol biosynthesis from [14C]acetate in cultured human skin fibroblasts at the concentration of 1 nM. Type of assay: functional.

Regarding `CC[C@H](C)C(=O)O[C@H]1CCC=C2C=C[C@H](C)[C@H](CC[C@@H]3C[C@@H](O)CC(=O)O3)[C@H]21` [MEVASTATIN], the Ki in assay [1] is around 1 nM. Besides, the inhibition at 1 µM in the assay listed under Homo sapiens [2] was 95%. Also, at 0.1 µM the inhibition in the assay filed under Homo sapiens [3] was 90%. The molecule further showed an inhibition at 10 µM in the assay filed under Homo sapiens [4] of 100%. Besides, in the assay listed under Homo sapiens [5], the inhibition at 0.01 µM is 80%. Testing at 0.001 µM in the assay filed under Homo sapiens [6] gave an inhibition of 50%.

As a reminder, the Ki is a measure of affinity in units of concentration, obtained from inhibition or displacement. A lower Ki goes with higher affinity. The inhibition is the drop in the measured response relative to a control, in per cent. A higher inhibition goes with a strong effect.
